{
  "source": "patent US20240091254A1",
  "about": "“WNT AGONISTS FOR PREVENTION OF CANCER” (ACADEMISH MEDISCH CENTRUM, priority 2021, published 2024)",
  "key": {"intestinal adenomas": {"system": "intestinal adenomas", "assay": "Long term adenoma formation in Lgr5-CreErt2;Apcfl/fl mice", "format": "in vivo, mouse", "conditions": "LiCl pre-treatment and maintenance, 60 days after induction", "procedure": "(§1) Lgr5-EGFP-IRES-Cre^ERT2 Villin-Cre^ERT2, Rosa26mTmG, Apc^fl/fl and Kras^G12D mice have been described earlier^30-34. All in vivo experiments were approved by the animal experimentation committee at the Amsterdam UMC—location Academic Medical Center in Amsterdam under nationally registered licence number AVD1180020172125 and performed according to national guidelines. Mice were housed in a 12 hour light/12 hour dark cycle, with temperatures between 20-24° C. and 40-70% humidity. For short term assays, both male and female mice were used. For long term assays, only females were used to prevent the risk of preliminary dropout due to fighting male mice. All mice were between 6-12 weeks old at the start of the experiments. For all mouse experiments, sufficient sample sizes were determined based on previous studies with a similar study design^3,35. Experimental animals were randomly assigned to the control or lithium treated groups, clone sizes and adenoma counts were scored blindly. […] Mouse discomfort during tumour formation assays was closely monitored, and endpoints were determined as <15% weight loss within 2 days or a mouse grimace scale (MGS) score<3. […] After 60 days, intestines were removed and polyps were counted macroscopically."}, "[1]": {"system": "Wnt pathway (TOP-GFP reporter)", "assay": "TOP-GFP Wnt reporter assay in MEFs", "format": "cell-based, mouse", "procedure": "Mouse embryonic fibroblasts (MEFs, ATCC) and HEK293T (ATCC) cells were both cultured in Dulbecco's Modified Eagle's Medium (DMEM) supplemented with 10% fetal calf serum (FCS), 1% Glutamine, and antibiotic penicillin and streptomycin. Cells were maintained at 37° C. in humidified air containing 5% CO2. All cell lines were routinely checked for mycoplasm contamination, no cell line authentication was performed.\nMouse embryonic fibroblasts (MEFs) were cultured in Dulbecco's Modified Eagle's Medium (DMEM) supplemented with 10% fetal calf serum (FCS), 1% Glutamine, and antibiotic penicillin and streptomycin. MEFs were stably transduced with Wnt reporter TOP-GFP (Addgene plasmid #35491). For TOP-GFP assays, cells were stimulated with Wnt3A conditioned medium for 24 hours after which GFP positivity was measured by flow cytometry."}, "[2]": {"assay": "Lithium levels in mouse serum after oral LiCl", "format": "in vivo", "conditions": "oral LiCl 300 mg/liter in tap water, Lgr5-CreErt2;Rosa26mTmG mice", "procedure": "as §1"}, "human colon organoids": {"system": "human colon organoids", "assay": "Human colon organoids incubated with FAP CM", "format": "cell-based", "conditions": "FAP CM with or without LiCl"}, "WT organoids": {"system": "WT organoids", "assay": "Murine WT intestinal organoids incubated with conditioned medium or recombinant Wnt antagonists (expansion, clonogenicity)", "format": "cell-based, mouse", "conditions": "WT organoids, Apc-/- CM, 5 mM LiCl", "procedure": "Murine intestinal crypts were isolated from Lgr5-EGFP-IRES-Cre^ERT2, Lgr5-EGFP-IRES-Cre^ERT2;Ape/or Villin-Cre^ERT2;Apc^fl/fl mice as described by Sato et al.^35. In short, intestines were removed from the mouse and washed thoroughly with ice-cold PBS. Next, the intestine was opened longitudinally and the villi were gently scraped off by a glass cover slide. The intestine was cut into pieces of 5×5 mm and incubated in 2 mM EDTA solution for 30 min. at 4° C. After removal of the EDTA, the crypts were resuspended in ice-cold 1% FCS in PBS by vigorously shaking the tube and passing the supernatant through a 70 µm strainer. Isolated crypts were resuspended in Matrigel® (Corning) and seeded in pre-heated 24-well plates, supplemented with basal organoid medium consisting of advanced DMEM/F12 medium (Gibco) containing 100× N2 and 50× B27 supplements, 100× Glutamax, 5 mM HEPES, 1 mM N-acetyl-L-cysteine (Sigma), and 100× antibiotic/antimycotic (all Gibco). The basal organoid medium was freshly supplemented with the following growth factors: mouse EGF 50 ng/ml (TEBU-BIO), R-spondin (conditioned medium), Noggin (conditioned medium). The first two days after crypt isolation CHIR99021 (Axon Medchem) and ROCK inhibitor (Sigma) was added to the medium. Ctnnb1^S organoids expressing a constitutive active variant of β-catenin were generated as described by Adam et al.^36. For in vitro recombination of loxP flanked alleles, 1 μM 40H-Tamoxifen (Sigma) was added to the medium. Recombination of the Apc gene was validated by digital droplet PCR (Bio-Rad) using EvaGreen® Supermix (Bio-Rad). Lgr5-EGFP-IRES-Cre^ERT2 organoids, referred to as wild type (WT) organoids, were stably transduced with a red fluorescent mCherry construct (LeGO-C2, Addgene #27399). The in vitro recombined Lgr5-EGFP-IRES-Cre^ERT2;Apc^fl/fl, referred to as Apc^−/−, were stably transduced with a green fluorescent Venus construct (LeGO-V2, Addgene #27340). During competition assays, organoids were plated in equal numbers in 24-well plates and full wells were scanned over time by the EVOS FL Cell Imaging System (Thermo Scientific). Conditioned medium (CM) was taken from 2-3 day old WT or Apc^−/− organoid cultures and freshly supplemented with growth factors R-spondin, Noggin and mEGF. During the competition assays the medium (normal and conditioned) was replaced every other day to minimize effects of medium depletion. To assess the effect of medium depletion, CM was 10× concentrated using 10 kDa Amicon® centrifugal filters (Millipore) and added to fresh ENR medium as 1:10. […] Recombinant proteins NOTUM (2 μg/mL, R&D, 9150-NO-050), WIF1 (5 μg/mL, R&D, 135-WF-050) and DKK2 (1 μg/mL, R&D, 2435-DKB-010) were freshly added to the culture medium, medium was refreshed every other day."}},
  "data": [
    {"smiles": "[Cl-].[Li+]", "note": "[LiCl, lithium chloride]", "values": [
      {"measurement": "Adenoma formation (number of adenomas)", "setting": "intestinal adenomas", "result": "markedly reduced adenoma formation in all segments of the intestine"},
      {"measurement": "Effect on Apc-/- CM reduction of Wnt3a mediated Wnt activation (TOP-GFP)", "setting": "[1]; MEFs, TOP-GFP reporter, 5 mM LiCl", "result": "completely abrogated this effect"},
      {"measurement": "Wnt signalling activation in Wnt reporter assay, Li2CO3 compared with LiCl", "setting": "[1]; comparable concentrations (5 or 10 mM)", "result": "activated the same amount of Wnt signalling"},
      {"measurement": "Serum concentrations (Li+), tolerability", "setting": "[2]", "result": "well-tolerated serum concentrations"},
      {"measurement": "Stemness (LGR5 expression) and clonogenicity of human colon organoids incubated with FAP CM", "setting": "human colon organoids", "result": "rescued loss of sternness and clonogenicity"},
      {"measurement": "Resistance to Apc-/- CM induced reduction in proliferation and clonogenicity", "setting": "WT organoids", "result": "resistant to the Apc^−/− CM induced reduction in proliferation and clonogenicity"}
    ]}
  ]
}
